Measurements from US8399490B2, “Insecticides” (Syngenta Crop Protection LLC, priority 2007, dated 2013).

How the values were obtained:
Type in all cases: in vivo
[1] = tested on: Heliothis virescens (tobacco budworm); assay: Example B2: Activity against Heliothis virescens (ovo-larvicide, feeding/contact activity, curative), eggs on artificial diet; details: 96 h, 4 days incubation
Experimental: Activity Against Heliothis virescens (Tobacco Budworm) (Ovo-Larvicide, Feeding/Contact Activity, Curative) Eggs (0-24 h old) are placed in 24-well microtiter plate on artificial diet and treated with test solutions by pipetting. After an incubation period of 4 days, samples are checked for egg mortality, larval mortality, and growth regulation.

[2] = tested on: Plutella xylostella (diamond back moth); assay: Example B3: Plutella xylostella (larvicide, feeding/residual contact activity, preventive), artificial diet MTP; details: 120 h, L2 larvae on artificial diet, 5 days incubation
Experimental: (§1) Plutella xylostella (Diamond Back Moth) (Larvicide, Feeding/Residual Contact Activity, Preventive) 24-well microtiter plate (MTP) with artificial diet is treated with test solutions by pipetting. After drying, the MTP's are infested with larvae (L2) (10-15 per well). After an incubation period of 5 days, samples are checked for larval mortality, antifeedant and growth regulation.

[3] = tested on: Diabrotica balteata (corn root worm); assay: Example B4: Diabrotica balteata (larvicide, feeding/residual contact activity, preventive), artificial diet MTP; details: 120 h, L2 larvae on artificial diet, 5 days incubation
Experimental: as §1, with “Diabrotica balteata (Corn Root Worm)” for “Plutella xylostella (Diamond Back Moth)”, “(6-10” for “(10-15”

[4] = tested on: Spodoptera littoralis (Egyptian cotton leafworm); assay: Example B1: Activity against Spodoptera littoralis (larvicide, feeding/residual contact activity, preventive), cotton leaf discs; details: foliar, 72 h, L1 larvae on cotton leaf discs, 3 days after treatment
Excerpt: Activity Against Spodoptera littoralis (Egyptian Cotton Leafworm)
(Larvicide, Feeding/Residual Contact Activity, Preventive)
The samples are checked for mortality, repellent effect, feeding behaviour, and growth regulation 3 days after treatment. In this test, compounds listed in Table P above show good activity. In particular compounds P.1, P.2, P.3, P.4, P.5, P.6, P.7, P.8, P.9, P.10, P.11, P.12, P.13, P.14, P.15, P.16, P.17, P.18, P.19, P.20, P.21, P.22, P.23, P.24, P.25, P.26, P.27, P.28, P.29, P.30, P.31, P.32, P.33, P.34, P.35, P.36, P.37, P.38, P.39, P.40, P.41, P.42, P.43, P.44, P.46, P.50, P.51, P.52, P.55, P.56, P.57, P.58, P.59, P.60, P61, P.66, P.67, P.68, P.69, P.70, P.71, P.72, P.73, P.74, P.75, P.76, P.77, P.78, P.83, P.84, P.87 and P.88 show an activity of over 80% at a concentration of 400 ppm.

Measured: pest or weed control at 400 ppm

CC(C)NC(=O)c1c(NC(=O)c2cc(C(F)(F)F)nn2-c2ncccc2Cl)c(Cl)cc2c1OCO2 [P.1]
> 80%: all assays above

CCNC(=O)c1c(NC(=O)c2cc(C(F)(F)F)nn2-c2ncccc2Cl)c(Cl)cc2c1OCO2 [P.2]
> 80%: all assays above

CC(C)NC(=O)c1c(NC(=O)c2cc(Cl)nn2-c2ncccc2Cl)c(Cl)cc2c1OCO2 [P.3]
> 80%: all assays above

CC(C)NC(=O)c1c(NC(=O)c2cc(C(F)F)nn2-c2ncccc2Cl)c(Cl)cc2c1OCO2 [P.4]
> 80%: all assays above

O=C(NC1(C2CC2)CC1)c1c(NC(=O)c2cc(Cl)nn2-c2ncccc2Cl)c(Cl)cc2c1OCO2 [P.6]
> 80%: all assays above

COc1cc(C(=O)Nc2c(Cl)cc3c(c2C(=O)NC2(C4CC4)CC2)OCO3)n(-c2ncccc2Cl)n1 [P.7]
> 80%: [1] | [2] | [4]

CCNC(=O)c1c(NC(=O)c2cc(Cl)nn2-c2ncccc2Cl)c(Cl)cc2c1OCO2 [P.8]
> 80%: all assays above

CNC(=O)c1c(NC(=O)c2cc(Cl)nn2-c2ncccc2Cl)c(Cl)cc2c1OCO2 [P.9]
> 80%: [1] | [2] | [4]

CC(C)NC(=O)c1c(NC(=O)c2cc(Br)nn2-c2ncccc2Cl)c(Cl)cc2c1OCO2 [P.10]
> 80%: all assays above

O=C(NC1(C2CC2)CC1)c1c(NC(=O)c2cc(Br)nn2-c2ncccc2Cl)c(Cl)cc2c1OCO2 [P.11]
> 80%: all assays above

O=C(NC1(C2CC2)CC1)c1c(NC(=O)c2cc(C(F)(F)F)nn2-c2ncccc2Cl)c(Cl)cc2c1OC(F)(F)O2 [P.17]
> 80%: all assays above

O=C(NC1(C2CC2)CC1)c1c(NC(=O)c2cc(Cl)nn2-c2ncccc2Cl)c(Cl)cc2c1OC(F)(F)O2 [P.25]
> 80%: all assays above

Cc1cc2c(c(C(=O)NC3(C4CC4)CC3)c1NC(=O)c1cc(Br)nn1-c1ncccc1Cl)OC(F)(F)O2 [P.28]
> 80%: all assays above

Cc1cc2c(c(C(=O)NC3(C4CC4)CC3)c1NC(=O)c1cc(Cl)nn1-c1ncccc1Cl)OC(F)(F)O2 [P.32]
> 80%: all assays above

CCc1cc2c(c(C(=O)NC)c1NC(=O)c1cc(Br)nn1-c1ncccc1Cl)OC(F)(F)O2 [P.33]
> 80%: [1] | [2] | [4]

CCc1cc2c(c(C(=O)NC(C)C)c1NC(=O)c1cc(Br)nn1-c1ncccc1Cl)OC(F)(F)O2 [P.34]
> 80%: [1] | [2] | [4]

CNC(=O)c1c(NC(=O)c2cc(OC)nn2-c2ncccc2Cl)c(C)cc2c1OC(F)(F)O2 [P.35]
> 80%: [1] | [2] | [4]

COc1cc(C(=O)Nc2c(C)cc3c(c2C(=O)NC(C)C)OC(F)(F)O3)n(-c2ncccc2Cl)n1 [P.36]
> 80%: all assays above

CNC(=O)c1c(NC(=O)c2cc(OC)nn2-c2ncccc2Cl)c(Cl)cc2c1OC(F)(F)O2 [P.37]
> 80%: all assays above

CNC(=O)c1c(NC(=O)c2cc(OC)nn2-c2ncccc2Cl)c(Br)cc2c1OC(F)(F)O2 [P.39]
> 80%: all assays above

COc1cc(C(=O)Nc2c(Br)cc3c(c2C(=O)NC(C)C)OC(F)(F)O3)n(-c2ncccc2Cl)n1 [P.40]
> 80%: all assays above

CNC(=O)c1c(NC(=O)c2cc(Br)nn2-c2ncccc2Cl)c(Br)cc2c1OC(F)(F)O2 [P.41]
> 80%: all assays above

CC(C)NC(=O)c1c(NC(=O)c2cc(Br)nn2-c2ncccc2Cl)c(Br)cc2c1OC(F)(F)O2 [P.42]
> 80%: all assays above

CC(C)NC(=O)c1c(NC(=O)c2cc(C(F)(F)F)nn2-c2ncccc2Cl)c(Cl)cc2c1C(O)CC2 (centres unmarked) [P.48]
> 80%: [2]

CC(C)NC(=O)c1c(NC(=O)c2cc(C(F)(F)F)nn2-c2ncccc2Cl)c(Cl)cc2c1C(F)CC2 (centres unmarked) [P.49]
> 80%: [1] | [2] | [3]

O=C(NC1(C2CC2)CC1)c1c(NC(=O)c2cc(C(F)(F)F)nn2-c2ncccc2Cl)c(Cl)cc2c1C(O)CC2 (centres unmarked) [P.51]
> 80%: [1] | [2] | [4]

CC(C)NC(=O)c1c(NC(=O)c2cc(C(F)(F)F)nn2-c2ncccc2Cl)c(Cl)cc2c1/C(=N/O)CC2 [P.52]
> 80%: [1] | [2] | [4]

O=C1CCc2cc(Cl)c(NC(=O)c3cc(Br)nn3-c3ncccc3Cl)c(C(=O)NC3(C4CC4)CC3)c21 [P.53]
> 80%: [2]

CC(C)NC(=O)c1c(NC(=O)c2cc(Br)nn2-c2ncccc2Cl)c(Cl)cc2c1C(O)CC2 (centres unmarked) [P.54]
> 80%: [1] | [2] | [3]

O=C(NC1(C2CC2)CC1)c1c(NC(=O)c2cc(Br)nn2-c2ncccc2Cl)c(Cl)cc2c1C(F)CC2 (centres unmarked) [P.55]
> 80%: [1] | [2] | [4]

CC(C)NC(=O)c1c(NC(=O)c2cc(Br)nn2-c2ncccc2Cl)c(Cl)cc2c1C(F)CC2 (centres unmarked) [P.56]
> 80%: [1] | [2] | [4]

CCNC(=O)c1c(NC(=O)c2cc(OCC(F)(F)F)nn2-c2ncccc2Cl)c(Cl)cc2c1OCO2 [P.58]
> 80%: [1] | [2] | [4]

CNC(=O)c1c(NC(=O)c2cc(Br)nn2-c2ncccc2Cl)ccc2c1S(=O)(=O)C(C)C2 (centres unmarked) [P.59]
> 80%: [1] | [2] | [4]

CC1Cc2ccc(NC(=O)c3cc(Br)nn3-c3ncccc3Cl)c(C(=O)NC3CC3)c2S1(=O)=O (centres unmarked) [P.61]
> 80%: [1] | [2] | [4]

CCNC(=O)c1c(NC(=O)c2cc(C(F)F)nn2-c2ncccc2Cl)c(C)cc2c1OCO2 [P.72]
> 80%: [1] | [2] | [4]

CC(C)NC(=O)c1c(NC(=O)c2cc(C(F)F)nn2-c2ncccc2Cl)c(Br)cc2c1OC(C)C2 (centres unmarked) [P.84]
> 80%: [1] | [2] | [4]

CC(C)NC(=O)c1c(NC(=O)c2cc(Br)nn2-c2ncccc2Cl)c(Br)cc2c1S(=O)(=O)C(C)C2 (centres unmarked) [P.87]
> 80%: [1] | [2] | [4]
